Structures can show the parent of a compound that is named as a salt.
target: T1, MMP9 (Homo sapiens, UniProt P14780); experiment: Assay of MMP9, fluorogenic peptide substrate; format: biochemical; details: activated MMP9 from THP1 cells, 0.5 nM; substrate 25 μM
T1 construct: endogenous in cells; host or cells: THP1 human monocytic leukemia cells, TPA-stimulated; enzyme purified from culture medium
Method: MMP9 is prepared form the culture medium of THP1 human monocytic leukemia cells treated with TPA. THP1 cells are maintained in a culture of DMEM/F-12 with 10% FCS and stimulated to produce pro-MMP9 with TPA (1 nM) in serum-free medium for 48 h. All purification procedures are carried out at 4° C. The 1 liters of culture medium is concentrated to 100 ml by Centricon (Amicon) and applied to a column (1×8 cm) of gelatin-sepharose (Pharmacia) equilibrated with 50 mM Tris-Cl (pH=8.0), 300 mM NaCl. The fraction containing pro-MMP-9 is eluted with 10% DMSO in 50 mM Tris-Cl (pH=8.0), 300 mM NaCl, then dialyzed against 50 mM Tris-Cl (pH 7.5), 150 mM NaCl. The fraction is concentrated by Centricon and subjected to column chromatography of Sephadex G200 (2×20 cm) equilibrated with 50 mM Tris-Cl (pH=7.5) containing 150 mM NaCl. The purified Pro-MMP9 is stored at −80° C. as a stock and the necessary amount of pro-form is used for activation. Pro-MMP9 is activated with 1 mM aminophenyl mercury acetate (APMA, ICN Pharmaceuticals) in 50 mM Tris-Cl (pH=7.5) containing 150 mM NaCl, 10 mM CaCl2 and 0.05% Brij-35 (MMP Assay Buffer) for 18 h at 37° C., and the APMA is removed by extensive dialysis against MMP Assay Buffer. The activated MMP9 is stored frozen at −80° C. until use.
The activated MMP-9 (82 kDa) is then used to screen compounds. A fluorogenic peptide, 2-N-methylaminobenzoic acid (Nma)-Gly-Pro-Gln-Gly-Leu-Ala-Gly-Gln-Lys-N^ε-(2,4-dinitrophenyl)(Dnp)-NH2 (Peptide Institute, Osaka, Japan) is used as the only substrate in all MMPs assay in this study at 25 μM. Stock solutions of the substrate are prepared in 100% DMSO at a concentration 1.0 mM. Assays are performed in MMP Assay Buffer. The reaction mixture is added in duplicate to appropriate wells of a 96 well microfluor plate and preincubated at 37° for 30 min. The reaction is started by the addition of 0.5 nM of activated MMP9. Stock solutions of each inhibitor are prepared by dissolving in 100% DMSO. Inhibitors are added into the assay mixture from the diluted solution with 100% DMSO prepared from the stock solutions. An equal volume of DMSO is added to controls. The final concentration of DMSO from inhibitor and substrate solutions is 5.0%. The increase of fluorescence is monitored at 460 nm with excitation at 355 nm. A time point on a linear part of the curve is chosen to determine the activity. The inhibition results are expressed as the inhibitor concentration that produce 50% inhibition (IC50) of the activity in the control reaction.

T1 sequence (P14780 107-707 limits assumed): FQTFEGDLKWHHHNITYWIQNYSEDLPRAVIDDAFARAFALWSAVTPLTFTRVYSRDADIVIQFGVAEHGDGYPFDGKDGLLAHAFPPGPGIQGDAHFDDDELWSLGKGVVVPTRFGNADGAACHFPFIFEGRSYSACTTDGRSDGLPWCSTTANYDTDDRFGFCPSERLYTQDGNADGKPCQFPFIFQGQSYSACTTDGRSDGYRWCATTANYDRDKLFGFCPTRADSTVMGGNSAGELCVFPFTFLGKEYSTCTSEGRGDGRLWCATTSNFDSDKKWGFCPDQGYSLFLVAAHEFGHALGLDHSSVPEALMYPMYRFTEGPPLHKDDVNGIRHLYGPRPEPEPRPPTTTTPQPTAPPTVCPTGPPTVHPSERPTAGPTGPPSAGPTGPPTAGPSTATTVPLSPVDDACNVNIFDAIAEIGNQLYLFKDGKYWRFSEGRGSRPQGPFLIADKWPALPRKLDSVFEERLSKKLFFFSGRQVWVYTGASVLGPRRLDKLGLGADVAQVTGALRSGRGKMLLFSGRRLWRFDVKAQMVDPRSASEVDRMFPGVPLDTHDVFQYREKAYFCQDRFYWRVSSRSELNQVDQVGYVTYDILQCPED

| IC50 [nM] | Compound |
| --- | --- |
| 1.2 | COc1ccc(CN(CC(=O)NO)S(=O)(=O)c2ccc(OCCCCl)cc2)cc1 [Example 68, 2-{[4-(3-chloro-propoxy)-benzenesulfonyl]-(4-methoxy-benzyl)amino}-N-hydroxy-acetamide] |
| 0.2 | C=CCCOc1ccc(S(=O)(=O)N(CC(=O)NO)Cc2ccc(-n3cncn3)cc2)cc1 [Example 79, 2-[(4-but-3-enyloxy-benzenesulfonyl)-(4-[1,2,4]triazol-1-yl-benzyl)-amino]-N-hydroxy-acetamide-hydrochloride salt] |
| 3.7 | C=CCCOc1ccc(S(=O)(=O)N(CC(=O)NO)Cc2ccc(-n3ccnc3)cc2)cc1 [Example 80, 2-[(4-But-3-enyloxy-benzenesulfonyl)-(4-imidazol-1-yl-benzyl)-amino]-N-hydroxy-acetamide-hydrochloride] |
| 6.3 | C=CCCOc1ccc(S(=O)(=O)N(CC(=O)NO)Cc2ccc(N3CCOCC3)cc2)cc1 [Example 81, 2-[(4-But-3-enyloxy-benzenesulfonyl)-(4-morpholin-4-yl-benzyl)-amino]-N-hydroxy-acetamide-hydrochloride] |
| 5.6 | C=CCCOc1ccc(S(=O)(=O)N(CC(=O)NO)Cc2cccc(F)n2)cc1 [Example 83a, 2-([4-But-3-enyloxy-benzenesulfonyl]-(6-fluoro-pyridine-2-yl)methyl-amino)-N-hydroxyacetamide] |
| 19.8 | C=CCCOc1ccc(S(=O)(=O)N(CC(=O)NO)Cc2ccc(N3CCCC3)cc2)cc1 [Example 84a, 2-[(4-But-3-enyloxy-benzenesulfonyl)-(4-(pyrrolidin-1-yl)-benzyl)-amino]-N-hydroxyacetamide-hydrochloride] |

| Compound | IC50 [nM] |
| --- | --- |
| 2-[(Cyclopropylmethoxy-benzenesulfonyl)-(4-[1,2,4]triazol-1-yl-benzyl)-amino]-N-hydroxyacetamide-hydrochloride salt [Example 82b] | 10.6 |
| O=C(CN(Cc1ccc(-n2cncn2)cc1)S(=O)(=O)c1ccc(OCCC2CC2)cc1)NO [Example 82a] | 17 |
| O=C(CN(Cc1ccc(-n2cncn2)cc1)S(=O)(=O)c1ccc(OCc2ccoc2)cc1)NO [Example 82c] | 7.4 |
